According to patent US8852869B2, “Method of determining functional deficiencies in the complement system” (Immunobond ApS, priority 2007, dated 2014):

Test system: alternative complement pathway (AP)
Experiment: Functional capacity of the alternative pathway on LPS-coated surface
Assay type: biochemical, human
Conditions: 10 mM EDTA present in the dilution buffer; data not shown
Protocol: The protocol for the functional capacity of the AP was similar to the method for the CP assay, with the following modification: Lipopolysaccharide W S. typhimurium (10 ug/ml) (lot. 51974, DICO LABORAORIES, US) was coated in 1M NaCl and used as activating surface for AP activation. The serum samples were diluted in dilution buffer with 4 mM Mg^2+, 10 mM EGTA, and 0.05% Tween-20 and were incubated for 60 min at 37° C. The C3, properdin and C9 deposition was measured by adding 100 μl of mAbs.
The influence of PAS on complement activation via the AP was also analyzed. NHS and C2-deficient serum diluted in dilution buffer containing 4 mM Mg^2+ and 10 mM EGTA was incubated in microtiter-wells (PolySorp), coated with LPS as described above in the presence or absence of PAS and deposition of complement components (C3b/C3bi, properdin and C9) was detected.
Various concentrations of PAS were used in order to determine a dose-response curve for PAS. Experiments were performed as described above only with varying the amount of PAS added to the sample.

O=C(O)CN(CCN(CC(=O)O)CC(=O)O)CC(=O)O [EDTA]
Deposition of C3, properdin and C9 (all three complement components): reduced to background levels
